Test results reported in patent publication US10745365B2, “Luminogenic and fluorogenic compounds and methods to detect molecules or conditions” (Promega Corporation, priority 2005, dated 2020).

Tests used:
Type in all cases: biochemical
[1] = target: T1, QuantiLum Luciferase (firefly luciferase) (Photinus pyralis, UniProt P08659); assay: Residual active QuantiLum luciferase after reaction with derivative (Steady Glo); conditions: no additive (reactions 3A, 4A)
T1 construct: purchased Promega Corporation El 70
Description: (§1) After producing the solutions in Table 37, the volume of all reactions was adjusted to 990 μl with water. […] While the light reading was being taken, a 10 μl sample of the reaction was diluted to 500 μl with enzyme stop solution (cooled on ice to 4° C.) mixed and placed on ice and a second sample of 90 μl of reaction was added to 10 μl of Gel/HPLC stop and the tube placed at −20° C. A timer was started with the start of the first reaction and the start times of the remaining reactions was noted. At 15, 30, 45 and 60 minutes, each reaction was sampled as above and the light produced in the luminometer tubes was measured. At 7 and 22 minutes, the light produced in the luminometer tubes was read, but the reactions were not sampled.
After all samples were taken, 50 μl of the sample diluted into enzyme stop solution was mixed with 50 μl of Steady Glo Luciferase Reagent (Promega) and the light produced measured after incubating at room temperature for 10 minutes. This measured the active luciferase in the initial reaction.
as §1, with “40,” for “37,”, “−200” for “−20°”

[2] = target: T1, QuantiLum Luciferase (firefly luciferase); assay: Light emission of QuantiLum firefly luciferase with luciferin derivatives; conditions: for Light reading (Turner 20/20) at time 0: 0 min; for Light reading (Turner 20/20) at time 7: 7 min; for Light reading (Turner 20/20) at time 15: 15 min; for Light reading (Turner 20/20) at time 22: 22 min; for Light reading (Turner 20/20) at time 30: 30 min; for Light reading (Turner 20/20) at time 45: 45 min; for Light reading (Turner 20/20) at time 60: 60 min; for Light emission, Alone: Alone (no addition)
Description: Gel and HPLC stop solution. Solid EDTA (free acid) was placed in a beaker with water and the pH of the solution adjusted to pH 7.0. The solution was then adjusted in volume to produce a solution 400 mM in EDTA.
Enzyme stop solution. A solution was prepared containing 20 mM Bis Tris, pH 6.5, 2 mM EDTA and 1 mg/ml bovine serum albumin.
Reaction buffer (2×). A solution was made containing 100 mM HEPES buffer, pH 8.0; 10 mM MgCl2.
DTT stock. Solid DTT (dithiothreitol) was dissolved in water and then adjusted to pH 8.0 with solid sodium hydroxide. The solution was then adjusted in volume to produce a solution 1 M in DTT.
as §1
as §1, with “40,” for “37,”, “−200” for “−20°”
The DTT, Coenzyme A, and QuantiLum stock solutions are the same as those described herein.
This solution was diluted 1:1 with water to produce an enzyme solution labeled “No addition.” This solution was diluted 1:1 with 400 mM DTT, pH 8.0 to produce a solution labeled+DTT. This solution was diluted 1: 1 with 4 mM Coenzyme A to produce a solution labeled+Co A. Finally, this solution was diluted 1: 1 with a solution having both 4 mM Coenzyme A and 400 mM DTT to produce a solution labeled+Co A & DTT.
50 μl samples of these solutions were placed in the wells of luminometer microtiter plates, row A to row G, respectively. Row H of the plates was given 50 μl of water.
Reactions in these plates were initiated by addition of 50 μl of solution containing QuantiLum luciferase using a 12 channel micropipette. The solutions added to the rows were: columns 1, 5, and 9—no addition solution; columns 2, 6, and 10—+Co A solution; columns 3, 7, and 11—+DTT solution, and; columns 4, 8, and 12—+Co A and DTT solution. After addition of the enzyme solution to the first row on every plate, a timer was started. After addition of the enzyme solution to the last row on each plate, the plate was sealed and read on a Veritas luminometer.

[3] = system: thermostable luciferase (Luc 146-1H2); assay: Light emission of thermostable luciferase with luciferin derivatives; conditions: 100 μM each
Description: This stock was used to produce enzyme stock solution having of 200 μg/ml enzyme solution in 1 mg/ml BSA, 200 mM HEPES buffer, pH 8.0, 20 mM MgCl2.
Solutions were made using a 1 M DTT solution, pH adjusted to 8.0, a 20 mM Coenzyme A solution in water (both described in examples above), a 100 mM ATP solution and water to create the following solutions: Sol′ A, 100 μM ATP; Sol′B, 100 μM ATP, 4 mM Coenzyme A; Sol′n C, 100 μM ATP, 400 mM DTT, and; Sol′n D, 100 μM ATP, 4 mM Coenzyme A and 400 mM DTT.
After assembly, the reactions were initiated by addition of 25 μl of the thermostable luciferase stock solution above and mixing the tube contents. A 50 μl sample was immediately removed and placed in a luminometer tube and the light read and the tube then replaced in a tube rack at room temperature. While the light reading was being taken, a 5 μl sample of the remaining reaction (which was kept at room temperature) was diluted into 495 μl of 50 mM BisTris, pH 6.5, 1 mg/ml BSA, 1 mM EDTA prechilled to 4° C. and the tube mixed and placed on ice. The light produced by the samples in the luminometer tubes were re-read at 20, 40, 60, 90 and 120 minutes post enzyme addition. Additional 5 μl samples were taken and diluted as above at 60 and 120 minutes post enzyme addition. Once all these readings and samples were taken, 50 μl of the diluted samples was mixed with 50 μl of Steady Glo in luminometer tubes, the tubes incubated 10 minutes […] then the light produced was read on a Turner TD 20/20 luminometer.

T1 sequence (P08659 whole entry): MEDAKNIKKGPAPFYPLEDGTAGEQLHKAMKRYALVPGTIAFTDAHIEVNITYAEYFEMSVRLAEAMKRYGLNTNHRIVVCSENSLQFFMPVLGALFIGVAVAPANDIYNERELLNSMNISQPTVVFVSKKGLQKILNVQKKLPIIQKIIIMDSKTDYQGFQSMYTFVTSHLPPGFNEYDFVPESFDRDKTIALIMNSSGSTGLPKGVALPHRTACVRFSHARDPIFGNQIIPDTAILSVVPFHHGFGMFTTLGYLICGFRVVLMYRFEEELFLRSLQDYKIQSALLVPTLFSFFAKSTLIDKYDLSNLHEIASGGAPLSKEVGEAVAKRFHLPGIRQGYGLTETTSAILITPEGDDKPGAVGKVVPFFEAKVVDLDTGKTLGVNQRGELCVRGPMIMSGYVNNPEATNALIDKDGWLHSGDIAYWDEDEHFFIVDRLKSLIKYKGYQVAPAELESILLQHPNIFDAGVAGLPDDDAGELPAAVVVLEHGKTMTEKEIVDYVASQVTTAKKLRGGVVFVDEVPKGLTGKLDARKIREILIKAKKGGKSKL

O=C(O)[C@H]1CSC(c2nc3ccc(OCCO)cc3s2)=N1 [2 hydroxyethoxyluciferin derivative, 6′-(2-hydroxyethoxyl) luciferin]
loss of luciferase activity on transformation of substrate [1]: significant and substantial reduction in enzyme activity
Light reading (Turner 20/20) at time 0 ([2]; +Co A): 810,864
Light reading (Turner 20/20) at time 7 ([2]; +Co A): 125,718
Light reading (Turner 20/20) at time 15 ([2]; +Co A): 61,287
Light reading (Turner 20/20) at time 22 ([2]; +Co A): 326,424
Light reading (Turner 20/20) at time 30 ([2]; +Co A): 169,972
Light reading (Turner 20/20) at time 45 ([2]; +Co A): 78,909
Light reading (Turner 20/20) at time 60 ([2]; +Co A): 45,156
Light reading (Turner 20/20) at time 0 ([2]; +DTT): 2,515,513
Light reading (Turner 20/20) at time 7 ([2]; +DTT): 294,885
Light reading (Turner 20/20) at time 15 ([2]; +DTT): 146,849
Light reading (Turner 20/20) at time 22 ([2]; +DTT): 335,031
Light reading (Turner 20/20) at time 30 ([2]; +DTT): 237,487
Light reading (Turner 20/20) at time 60 ([2]; +DTT): 67,064
Light reading (Turner 20/20) at time 0 ([2]; No Additive): 749,597
Light reading (Turner 20/20) at time 7 ([2]; No Additive): 114,541
Light reading (Turner 20/20) at time 15 ([2]; No Additive): 63,691
Light reading (Turner 20/20) at time 22 ([2]; No Additive): 259,945
Light reading (Turner 20/20) at time 30 ([2]; No Additive): 233,600
Light reading (Turner 20/20) at time 45 ([2]; No Additive): 51,233
Light reading (Turner 20/20) at time 60 ([2]; No Additive): 44,782
Light reading (Turner 20/20) at time 0 ([2]; no ATP): 87
Light reading (Turner 20/20) at time 7 ([2]; no ATP): 106
Light reading (Turner 20/20) at time 15 ([2]; no ATP): 387,497
Light reading (Turner 20/20) at time 22 ([2]; no ATP): 218,745
Light reading (Turner 20/20) at time 45 ([2]; no ATP): 11,499
Light reading (Turner 20/20) at time 60 ([2]; no ATP): 20,100

O=C(O)C1CSC(c2nc3ccc(NCCCO)cc3s2)=N1 (stereo not shown) [N-(3-hydroxypropyl)-aminoluciferin]
luciferase substrate [2]: substrate for luciferase that provides sufficient light output for a luminescence reaction

CN(C)c1ccc2nc(C3=NC(C(=O)O)CS3)sc2c1 (stereo not shown) [dimethyl amino luciferin]
brightness relative to amino luciferin [3]: only about half as bright

O=C(O)[C@H]1CSC(c2nc3ccc(OCc4ccccc4)cc3s2)=N1 [luciferin-6-benzylether, reference compound]
Light emission, Co A ([2]; Derivative Conc. 3.13 μM, +Co A): 55778
Light emission, Co A + DTT ([2]; Derivative Conc. 3.13 μM): 80626
Light emission, DTT ([2]; Derivative Conc. 3.13 μM, +DTT): 86445
Light emission, Alone ([2]; Derivative Conc. 3.13 μM): 32994
Light emission, Co A ([2]; Derivative Conc. 6.25 μM, +Co A): 58288
Light emission, Co A + DTT ([2]; Derivative Conc. 6.25 μM): 105912
Light emission, DTT ([2]; Derivative Conc. 6.25 μM, +DTT): 100044
Light emission, Alone ([2]; Derivative Conc. 6.25 μM): 38838
Light emission, Co A ([2]; Derivative Conc. 25 μM, +Co A): 53097
Light emission, Co A + DTT ([2]; Derivative Conc. 25 μM): 90306
Light emission, DTT ([2]; Derivative Conc. 25 μM, +DTT): 84034
Light emission, Alone ([2]; Derivative Conc. 25 μM): 40093
Light emission, Co A ([2]; Derivative Conc. 50 μM, +Co A): 38349
Light emission, Co A + DTT ([2]; Derivative Conc. 50 μM): 98716
Light emission, DTT ([2]; Derivative Conc. 50 μM, +DTT): 80001
Light emission, Alone ([2]; Derivative Conc. 50 μM): 30609
Light emission, Co A ([2]; Derivative Conc. 100 μM, +Co A): 33199
Light emission, Co A + DTT ([2]; Derivative Conc. 100 μM): 64460
Light emission, DTT ([2]; Derivative Conc. 100 μM, +DTT): 54592
Light emission, Alone ([2]; Derivative Conc. 100 μM): 31581
